# Tests used:
# [1] = system: HFD SD rat model; experiment: HFD SD rat model, biochemical, organ weight ratio, liver lipid and liver pathology; type: in vivo; conditions: for HDL-c / LDL-c / TC / ALT / AST / TG: HFD SD rat serum; for HDL-c / LDL-c / TC / ALT / AST / TG / H/B (heart/body weight ratio) / L/B (liver/body weight ratio): mean ± SD; for HDL-c: model 1.2 ± 0.44, normal 1.1 ± 0.13; for LDL-c: model 9.7 ± 6.1, normal 0.28 ± 0.06; for TC: model 20 ± 13, normal 1.5 ± 0.20; for ALT: model 166 ± 95, normal 32 ± 6.8; for AST: model 365 ± 212, normal 103 ± 21; for TG: model 0.82 ± 0.73, normal 0.53 ± 0.34; for H/B (heart/body weight ratio): model 0.24 ± 0.02, normal 0.28 ± 0.02; for L/B (liver/body weight ratio): model 5.1 ± 0.75, normal 2.8 ± 0.26
# Procedure: SD rat study: 58 SD rats ♂ aged 5–6 weeks were purchased from Beijing Huafukang Biotechnology Co., Ltd. 9 animals were kept with a food control diet as normal control, and the other 49 animals were fed 40% fat, 1.25% cholesterol and 0.5% sodium cholate (HFD, D12109C, SYSE BIO, Changzhou, China) as a model group. […] Animals in the normal and model groups were given solvent by oral gavage. All drugs, including solvent, were administered consecutively for 4 weeks and once a day. After sacrifice, blood was collected and serum was isolated for the AST, ALT, TG, TC, LDL-c, and HDL-c test, and livers and hearts were weighed to calculate the liver weight ratio and the heart weight ratio, respectively. The right lobe of the liver of each rat was harvested for the TG and TC test (A110-1-1 and A111-1-1, Nanjing Jiancheng Institute of Bioengineering, Nanjing, China) according to the manufacturer's instructions. The left lobe of the liver was collected for hematoxylin-eosin staining (H and E staining) to quantify liver steatosis, inflammation, and ballooning.
# The liver samples were fixed in 10% formalin and embedded in paraffin using standard methods. The 4 μm paraffin sections were then assessed for liver histology by H and E staining and liver fibrosis by sirius red staining. The stained sections were panoramic scanned with a NanoZoomer Digital Pathology scanner (S210, Hamamatsu, Japan), and then observed with different visual fields at different magnifications, and scored for different liver lobes in the sections. The total NAS score represents the sum of the scores for steatosis (0–3), lobular inflammation (0–3), and ballooning (0–2), and ranges from 0–8 [30]. VIS7.0 software was used to analyze the area of liver fibrosis in the panoramic scanning SR staining sections, and the percentage of liver fibrosis area in the whole section area was calculated.
# [2] = system: HFD-CHOL hamster model; experiment: HFD-CHOL hamster model, serum biochemical test; type: in vivo, golden hamster; conditions: mean ± SD; for HDL-c: model 3.6 ± 1.1, normal 1.6 ± 0.45; for LDL-c: model 17 ± 6.1, normal 1.3 ± 0.54; for TG: model 26 ± 24, normal 2.1 ± 1.1; for TC: model 37 ± 13, normal 3.1 ± 0.72; for ALT: model 278 ± 174, normal 94 ± 58; for AST: model 638 ± 323, normal 98 ± 45
# Procedure: Hamster study: 58 golden hamsters ♂ aged 6–8 weeks were purchased from Beijing Vital River Laboratory Animal Technology Co., Ltd. 10 animals were kept with a diet of food control as normal control, and the other 48 animals were fed 40% fat and 1.25% cholesterol (HFD-CHOL, D12108C, Research diet) as a model group. […] Animals in the normal and model group were given solvent by oral gavage. All drugs, including solvent, were administered consecutively for 4 weeks and once a day. After sacrifice, blood was collected and serum was isolated for the AST, ALT, TG, TC, LDL-c, and HDL-c test.
# [3] = Observation of diarrhea in treated animals; type: in vivo, rodents; conditions: animal studies
# [4] = 5 mg/kg (L) oral once a day 4 weeks
# [5] = 15 mg/kg (CS27109-M, MGL-3196) oral once a day 4 weeks
# [6] = 45 mg/kg (H) oral once a day 4 weeks
# [7] = HFD SD rat, 5 mg/kg (L) oral once a day 4 weeks
# [8] = HFD SD rat, 15 mg/kg (CS27109-M, MGL-3196) oral once a day 4 weeks
# [9] = HFD SD rat, 45 mg/kg (H) oral once a day 4 weeks
# [10] = 3 mg/kg (L) oral once a day 4 weeks
# [11] = 10 mg/kg (CS27109-M, MGL-3196) oral once a day 4 weeks
# [12] = 30 mg/kg (H) oral once a day 4 weeks
compound,measurement,setting,value
N#Cc1nn(-c2cc(Br)c(Oc3n[nH]c(=O)c4ccccc34)c(Br)c2)c(=O)[nH]c1=O [CS27109],HDL-c,[1]; [4],0.78 ± 0.18 mmol/L
same,LDL-c,[1]; [4],1.6 ± 0.74 mmol/L
same,TC,[1]; [4],4.4 ± 1.8 mmol/L
same,ALT,[1]; [4],85 ± 34 U/L
same,AST,[1]; [4],213 ± 78 U/L
same,TG,[1]; [5],0.22 ± 0.06 mmol/L
same,HDL-c,[1]; [5],0.98 ± 0.32 mmol/L
same,LDL-c,[1]; [5],0.84 ± 0.44 mmol/L
same,TC,[1]; [5],2.9 ± 0.98 mmol/L
same,ALT,[1]; [5],68 ± 24 U/L
same,AST,[1]; [5],218 ± 82 U/L
same,TG,[1]; [6],0.20 ± 0.08 mmol/L
same,HDL-c,[1]; [6],1.0 ± 0.30 mmol/L
same,LDL-c,[1]; [6],0.59 ± 0.32 mmol/L
same,TC,[1]; [6],2.3 ± 0.65 mmol/L
same,ALT,[1]; [6],89 ± 50 U/L
same,AST,[1]; [6],253 ± 131 U/L
same,liver steatosis score (H and E),"[1]; HFD SD rat, 4 weeks, CS27109 5-45 mg/kg dose-dependent, MGL3196 15 mg/kg, vs model",lessened steatosis
same,liver inflammation score (H and E),"[1]; HFD SD rat, 4 weeks, CS27109 5-45 mg/kg, MGL3196 15 mg/kg, vs model","dose-dependently reduced liver inflammation, but without a significant effect"
same,NAS score,"[1]; HFD SD rat, 4 weeks, high dose CS27109 (45 mg/kg) only, vs model",decreased the NAS score
same,H/B (heart/body weight ratio),[1]; [7],0.27 ± 0.03%
same,L/B (liver/body weight ratio),[1]; [7],4.0 ± 0.52 %
same,H/B (heart/body weight ratio),[1]; [8],0.28 ± 0.02 %
same,L/B (liver/body weight ratio),[1]; [8],4.1 ± 0.56 %
same,H/B (heart/body weight ratio),[1]; [9],0.27 ± 0.02%
same,L/B (liver/body weight ratio),[1]; [9],3.9 ± 0.54 %
same,HDL-c,[2]; [10],2.6 ± 0.62 mmol/L
same,LDL-c,[2]; [10],13 ± 4.3 mmol/L
same,TG,[2]; [10],32 ± 31 mmol/L
same,TC,[2]; [10],29 ± 8.6 mmol/L
same,ALT,[2]; [10],226 ± 104 U/L
same,AST,[2]; [10],564 ± 317 U/L
same,HDL-c,[2]; [11],3.0 ± 0.52 mmol/L
same,LDL-c,[2]; [11],12 ± 3.8 mmol/L
same,TG,[2]; [11],17 ± 26 mmol/L
same,TC,[2]; [11],25 ± 7.4 mmol/L
same,ALT,[2]; [11],141 ± 133 U/L
same,AST,[2]; [11],582 ± 383 U/L
same,HDL-c,[2]; [12],2.6 ± 0.53 mmol/L
same,LDL-c,[2]; [12],8.7 ± 4.1 mmol/L
same,TG,[2]; [12],11 ± 19 mmol/L
same,TC,[2]; [12],19 ± 7.9 mmol/L
same,AST,[2]; [12],416 ± 158 U/L
same,diarrhea in treated animals,[3],rarely observed

# From article PMC9943626, “CS27109, A Selective Thyroid Hormone Receptor-β Agonist Alleviates Metabolic-Associated Fatty Liver Disease in Murine Models” (International Journal of Endocrinology, 2023)
